In patent US20180134683A1, “HETEROCYLCIC COMPOUNDS AS IDH2 INHIBITORS” (TELIGENE LTD., priority 2015, published 2018):
Values after ≈ are worked out from the molar mass of the structure shown. Like-named read-outs stand apart in the source and are kept apart here.

What was measured:
IDH2 R140Q = target: T1, IDH2 R140Q (Homo sapiens, UniProt P48735, R140Q); experiment: IDH2 enzymatic assay (cofactor depletion assay); format: biochemical
T1 sequence (P48735 40-452 R140Q): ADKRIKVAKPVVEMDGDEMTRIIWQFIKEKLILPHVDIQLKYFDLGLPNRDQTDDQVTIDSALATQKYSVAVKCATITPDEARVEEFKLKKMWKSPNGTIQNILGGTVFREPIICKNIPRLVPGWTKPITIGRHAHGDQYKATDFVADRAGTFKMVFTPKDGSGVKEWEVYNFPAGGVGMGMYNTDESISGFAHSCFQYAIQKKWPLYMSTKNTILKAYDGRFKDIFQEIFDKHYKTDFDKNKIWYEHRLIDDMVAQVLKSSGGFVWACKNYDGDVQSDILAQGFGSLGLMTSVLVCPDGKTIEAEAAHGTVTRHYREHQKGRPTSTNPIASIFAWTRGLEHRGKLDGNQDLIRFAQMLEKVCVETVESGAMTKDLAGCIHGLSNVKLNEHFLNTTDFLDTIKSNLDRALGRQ
Protocol: Enzymatic Assay. Compounds were assayed for IDH2 R140Q inhibitory activity through a cofactor depletion assay. […] The reaction was terminated by the addition of a second enzyme, diaphorase, and a corresponding substrate, resazurin. Diaphorase reduces resazurin to the highly fluorescent resorufin with the concomitant oxidation of NADPH to NADP, both halting the IDH2 reaction by depleting the available cofactor pool and facilitating quantitation of the amount of cofactor remaining after a specific time period through quantitative production of an easily detected fluorophore. […] The compound was then incubated for one hour at room temperature with the enzyme; before starting the IDH2 reaction with the addition of 10 μl of substrate mix containing 50 μM NADPH and 6.3 mM a-KG in the buffer described above.

[1] = Pharmacokinetic (PK) profile
[2] = Solubility measurement (HPLC); format: physicochemical; settings: for solubility at 30 min: aqueous buffer, thermodynamic from solid, 25° C.
Protocol: Preparation of reference standard solution: 2 mg of Compound 17 or Compound 19 was added individually to 100 mL volumetric flask each. The compound was diluted with acetonitrile to 100 mL.
Preparation of sample solution: 2 mg of Compound 17 or Compound 19 was added individually to 2 mL eppendorf tube (EP), followed by addition of 1 mL of pH 7.0 or 4.0 buffer solution (20 mM). The solution was shook for 2 minutes and left for 30 minutes at 25° C. After standing for 30 minutes, precipitate was formed in the bottom of the EP. The solutions was filtered through 0.2 um membrane filter, and then diluted by 50 times with water.
The standard and sample solutions were injected into the HPLC on a Shim-Pack CLC-ODS C18 column (150mm×6.0mm, 5um) with the same volume. The mobile phase consisted of acetonitrile with 2% trichloromethane−20 mM KH2PO4 buffer (pH=7.0) at a flow rate of 1 mL/minutes (40:60). The detection wavelength is at 264 nm. Calculation: solubility of sample=the concentration of standard×Area of sample×50 /Area of standard.

ALK (L1152 R) = ALK (L1152 R) (Homo sapiens, UniProt Q9UM73, L1152R); experiment: In vitro kinase assay (33P-ATP, P81 filter); format: biochemical; settings: for remaining activity at 10 µM: 10 μM compound, 10 μM ATP
ALK (L1152 R), sequence (Q9UM73 19-1620 L1152R): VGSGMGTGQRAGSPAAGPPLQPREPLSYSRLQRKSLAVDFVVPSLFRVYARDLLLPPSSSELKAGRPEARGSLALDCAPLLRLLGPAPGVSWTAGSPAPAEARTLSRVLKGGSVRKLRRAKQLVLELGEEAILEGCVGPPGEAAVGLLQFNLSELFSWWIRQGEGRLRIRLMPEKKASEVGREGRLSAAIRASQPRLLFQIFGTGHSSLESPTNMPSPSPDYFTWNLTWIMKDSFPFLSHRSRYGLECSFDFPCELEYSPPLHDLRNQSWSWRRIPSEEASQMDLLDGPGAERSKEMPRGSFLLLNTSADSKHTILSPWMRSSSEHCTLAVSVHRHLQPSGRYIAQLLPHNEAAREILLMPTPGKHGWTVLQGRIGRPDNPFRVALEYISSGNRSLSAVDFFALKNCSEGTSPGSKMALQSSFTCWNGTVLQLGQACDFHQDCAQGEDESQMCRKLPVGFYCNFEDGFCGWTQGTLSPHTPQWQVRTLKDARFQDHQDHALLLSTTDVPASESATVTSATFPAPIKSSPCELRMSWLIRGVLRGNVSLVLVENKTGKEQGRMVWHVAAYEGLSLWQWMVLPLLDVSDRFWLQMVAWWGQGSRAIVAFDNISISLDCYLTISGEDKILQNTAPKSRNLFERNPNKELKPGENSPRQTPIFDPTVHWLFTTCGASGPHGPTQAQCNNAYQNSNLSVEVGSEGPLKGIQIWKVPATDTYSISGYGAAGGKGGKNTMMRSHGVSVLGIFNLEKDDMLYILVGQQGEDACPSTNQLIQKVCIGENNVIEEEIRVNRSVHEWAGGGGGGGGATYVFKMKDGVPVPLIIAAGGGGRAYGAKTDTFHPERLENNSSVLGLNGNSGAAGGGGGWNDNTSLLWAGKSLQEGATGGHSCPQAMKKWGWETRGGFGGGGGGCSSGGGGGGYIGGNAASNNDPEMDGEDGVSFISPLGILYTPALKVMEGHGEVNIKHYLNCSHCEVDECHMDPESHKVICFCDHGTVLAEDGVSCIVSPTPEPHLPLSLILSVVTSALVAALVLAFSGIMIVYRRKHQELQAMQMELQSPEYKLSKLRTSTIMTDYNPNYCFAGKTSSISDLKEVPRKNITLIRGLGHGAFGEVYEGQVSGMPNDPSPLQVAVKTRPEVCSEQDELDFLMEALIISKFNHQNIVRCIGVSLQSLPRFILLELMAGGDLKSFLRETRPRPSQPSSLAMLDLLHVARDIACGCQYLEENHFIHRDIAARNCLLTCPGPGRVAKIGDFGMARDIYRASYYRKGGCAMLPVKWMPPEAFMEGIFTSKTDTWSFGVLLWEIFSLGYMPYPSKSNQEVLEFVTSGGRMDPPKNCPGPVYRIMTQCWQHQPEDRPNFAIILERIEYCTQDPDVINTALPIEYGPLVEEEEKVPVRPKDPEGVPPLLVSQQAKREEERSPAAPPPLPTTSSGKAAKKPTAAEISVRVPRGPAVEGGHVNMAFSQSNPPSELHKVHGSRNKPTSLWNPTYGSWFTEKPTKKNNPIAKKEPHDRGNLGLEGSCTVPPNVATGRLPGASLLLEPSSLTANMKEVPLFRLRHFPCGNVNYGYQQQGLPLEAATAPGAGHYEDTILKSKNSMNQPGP
Protocol: (§1) These properties may be assesses, for example, using one or more of the procedures set out below: • An in vitro assay which determines the ability of a test compound to inhibit kinases. Conducts the kinase assay with the following condition and procedure: • Reagent: Base Reaction Buffer; 20 mM Hepes (pH 7.5), 10 mM MgCl2, 1 mM EGTA, 0.02% Brij35, 0.02 mg/ml BSA, 0.1 mM Na3VO4, 2 mM DTT, 1% DMSO.
(§2) • 1. Prepare indicated substrate in freshly prepared Base Reaction Buffer. • 2. Deliver any required cofactors to the substrate solution obtained in step 1. • 3. Deliver indicated kinase into the substrate solution prepared in step 2 and gently mix. • 4. Deliver compounds in DMSO into the kinase reaction mixture prepared in step 3. • 5. Deliver ^33P-ATP (specific activity 0.01 μCi/μl final) into the reaction mixture prepared in step 4 to initiate the reaction. • 6. Incubate kinase reaction for 120 min. at room temperature. • 7. Reactions are spotted onto P81 ion exchange paper (Whatman # 3698-915). • 8. Washing filters extensively in 0.75% Phosphoric acid. Compound was tested in single dose duplicate mode at a concentration of 10 μM, reactions were carried out at 10 μM ATP

c-MER (A708S) = target: T2, c-MER (A708S) (Homo sapiens, UniProt Q12866, A708S); experiment: In vitro kinase assay (33P-ATP, P81 filter); format: biochemical; settings: for remaining activity at 10 µM: 10 μM compound, 10 μM ATP
T2 sequence (Q12866 21-999 A708S): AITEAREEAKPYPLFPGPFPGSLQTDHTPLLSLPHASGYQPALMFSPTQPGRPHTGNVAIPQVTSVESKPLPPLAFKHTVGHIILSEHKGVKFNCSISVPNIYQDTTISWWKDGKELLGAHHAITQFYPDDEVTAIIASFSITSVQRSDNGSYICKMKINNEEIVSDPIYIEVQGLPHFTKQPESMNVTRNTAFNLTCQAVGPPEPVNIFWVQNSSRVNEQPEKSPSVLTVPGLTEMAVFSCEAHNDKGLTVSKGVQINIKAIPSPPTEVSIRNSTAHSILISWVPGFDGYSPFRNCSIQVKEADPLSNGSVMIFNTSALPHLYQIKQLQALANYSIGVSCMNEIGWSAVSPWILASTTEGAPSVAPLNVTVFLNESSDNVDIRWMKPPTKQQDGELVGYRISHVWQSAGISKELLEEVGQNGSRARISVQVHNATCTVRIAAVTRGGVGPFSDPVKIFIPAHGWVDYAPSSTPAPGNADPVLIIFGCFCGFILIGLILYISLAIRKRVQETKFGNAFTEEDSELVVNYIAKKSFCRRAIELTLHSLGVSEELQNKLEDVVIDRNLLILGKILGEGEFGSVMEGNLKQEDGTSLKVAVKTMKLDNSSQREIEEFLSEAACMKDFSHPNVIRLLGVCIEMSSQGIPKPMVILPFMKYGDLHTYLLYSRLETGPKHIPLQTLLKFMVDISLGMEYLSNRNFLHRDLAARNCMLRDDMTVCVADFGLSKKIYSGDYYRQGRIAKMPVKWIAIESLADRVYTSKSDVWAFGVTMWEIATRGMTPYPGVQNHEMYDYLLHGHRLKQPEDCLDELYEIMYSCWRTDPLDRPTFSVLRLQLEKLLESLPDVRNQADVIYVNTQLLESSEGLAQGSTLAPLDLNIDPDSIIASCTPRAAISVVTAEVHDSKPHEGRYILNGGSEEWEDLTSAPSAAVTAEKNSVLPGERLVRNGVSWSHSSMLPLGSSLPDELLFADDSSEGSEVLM
Protocol: as §1, §2

BRAF (G464V) = BRAF (G464V) (Homo sapiens, UniProt P15056, G464V); experiment: In vitro kinase assay (33P-ATP, P81 filter); format: biochemical; settings: for remaining activity at 10 µM: 10 μM compound, 10 μM ATP
BRAF (G464V), sequence (P15056 whole entry G464V): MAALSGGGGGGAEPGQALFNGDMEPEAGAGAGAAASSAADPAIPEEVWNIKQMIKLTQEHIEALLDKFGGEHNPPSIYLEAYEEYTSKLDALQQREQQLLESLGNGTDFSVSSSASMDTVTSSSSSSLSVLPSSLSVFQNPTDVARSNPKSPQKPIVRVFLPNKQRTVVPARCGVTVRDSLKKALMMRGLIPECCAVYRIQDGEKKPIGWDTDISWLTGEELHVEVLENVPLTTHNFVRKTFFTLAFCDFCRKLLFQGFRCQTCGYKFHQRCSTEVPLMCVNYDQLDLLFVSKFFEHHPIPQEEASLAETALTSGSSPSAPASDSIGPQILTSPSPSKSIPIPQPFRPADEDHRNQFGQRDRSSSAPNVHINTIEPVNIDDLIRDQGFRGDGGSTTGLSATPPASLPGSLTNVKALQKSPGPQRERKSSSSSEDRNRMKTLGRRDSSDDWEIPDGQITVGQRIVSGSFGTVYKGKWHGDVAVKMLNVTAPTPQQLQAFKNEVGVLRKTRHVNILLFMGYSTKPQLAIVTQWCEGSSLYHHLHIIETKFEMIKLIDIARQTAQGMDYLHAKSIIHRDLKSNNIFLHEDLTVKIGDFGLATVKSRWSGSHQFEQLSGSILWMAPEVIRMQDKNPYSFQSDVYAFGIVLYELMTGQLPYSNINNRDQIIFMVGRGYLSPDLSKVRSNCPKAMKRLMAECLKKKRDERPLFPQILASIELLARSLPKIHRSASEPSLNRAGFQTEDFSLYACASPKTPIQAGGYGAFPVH
Protocol: as §1, §2

AXL (R499C) = target: T3, AXL (R499C) (Homo sapiens, UniProt P30530, R499C); experiment: In vitro kinase assay (33P-ATP, P81 filter); format: biochemical; settings: for remaining activity at 10 µM: 10 μM compound, 10 μM ATP
T3 sequence (P30530 26-894 R499C): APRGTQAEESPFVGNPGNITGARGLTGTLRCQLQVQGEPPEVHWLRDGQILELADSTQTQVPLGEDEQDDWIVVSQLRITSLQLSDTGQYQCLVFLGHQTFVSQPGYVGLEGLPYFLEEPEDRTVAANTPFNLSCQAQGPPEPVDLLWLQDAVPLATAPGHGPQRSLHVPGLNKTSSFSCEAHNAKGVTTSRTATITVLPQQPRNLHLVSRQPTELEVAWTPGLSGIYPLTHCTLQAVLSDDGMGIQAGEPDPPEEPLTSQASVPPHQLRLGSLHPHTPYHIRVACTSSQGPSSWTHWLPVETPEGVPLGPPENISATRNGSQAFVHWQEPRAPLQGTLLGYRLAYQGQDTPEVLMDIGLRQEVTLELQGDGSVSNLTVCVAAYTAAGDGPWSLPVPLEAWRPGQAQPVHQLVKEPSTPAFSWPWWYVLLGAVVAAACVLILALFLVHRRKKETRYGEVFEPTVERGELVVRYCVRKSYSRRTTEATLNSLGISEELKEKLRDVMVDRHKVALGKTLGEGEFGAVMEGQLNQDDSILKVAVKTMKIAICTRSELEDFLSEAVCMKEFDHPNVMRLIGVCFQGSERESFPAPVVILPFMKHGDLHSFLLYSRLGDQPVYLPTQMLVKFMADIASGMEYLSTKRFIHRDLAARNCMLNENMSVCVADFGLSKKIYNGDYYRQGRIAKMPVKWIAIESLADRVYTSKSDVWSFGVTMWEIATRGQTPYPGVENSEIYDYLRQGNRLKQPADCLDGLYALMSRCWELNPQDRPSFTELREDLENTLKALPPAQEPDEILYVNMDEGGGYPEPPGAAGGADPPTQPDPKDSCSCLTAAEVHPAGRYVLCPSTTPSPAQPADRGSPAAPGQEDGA
Protocol: as §1, §2

[3] = IDH2 R140Q, one hour preincubation, 60 minutes reaction, read-out: Enzyme Inhibition IDH2
[4] = pH 4.0 buffer solution (20 mM), read-out: Solubility at pH 4.0
[5] = pH 7.0 buffer solution (20 mM), read-out: Solubility at pH 7.0
[6] = duplicate 1, read-out: % Enzyme Activity (relative to DMSO controls) Data 1
[7] = duplicate 2, read-out: % Enzyme Activity (relative to DMSO controls) Data 2

| IC50 (IDH2 R140Q; [3]) | pharmacokinetic (PK) profile compared with Compound 19 (in words) [1] | solubility compared with Compound 19 (in words) ([2]; pH=4.0) | solubility compared with Compound 19 (in words) ([2]; pH=7.0) | remaining activity at 10 µM (ALK (L1152 R); [6]) | remaining activity at 10 µM (ALK (L1152 R); [7]) | activity against kinase (in words) (ALK (L1152 R); panel of kinases) | remaining activity at 10 µM (c-MER (A708S); [6]) | remaining activity at 10 µM (c-MER (A708S); [7]) | activity against kinase (in words) (c-MER (A708S); panel of kinases) | remaining activity at 10 µM (BRAF (G464V); [6]) | remaining activity at 10 µM (BRAF (G464V); [7]) | activity against kinase (in words) (BRAF (G464V); panel of kinases) | remaining activity at 10 µM (AXL (R499C); [6]) | remaining activity at 10 µM (AXL (R499C); [7]) | activity against kinase (in words) (AXL (R499C); panel of kinases) | SMILES | safety profile compared with Compound 19 (in words) (Safety profile) | solubility at 30 min [2, 4] | solubility at 30 min [2, 5] | IC50 (IDH2 R140Q) |
| --- | --- | --- | --- | --- | --- | --- | --- | --- | --- | --- | --- | --- | --- | --- | --- | --- | --- | --- | --- | --- |
| 262 nM | better pharmacokinecitc (PK) | much higher solubility | better solubility | 79.2% | 78.9% | active | 79.8% | 79.5% | active | 69.9% | 68.9% | active | 58.2% | 58.1% | active | CN1CCN(c2nc(Nc3ccnc(C(F)(F)F)c3)nc(-c3cccc(C(F)(F)F)n3)n2)CC1 [Compound 17, 4-(4-methylpiperazin-1-yl)-6-(6-(trifluoromethyl)pyridin-2-yl)-N-(2-(trifluoromethyl)pyridin-4-yl)-1,3,5-triazin-2-amine] | favorable safety profile | 123 µg/mL (≈ 254 µM) | 0.276 µg/mL (≈ 0.57 µM) |  |
| 12.2 nM |  |  |  |  |  |  |  |  |  |  |  |  |  |  |  | CN(C)c1nc(Nc2ccnc(C(F)(F)F)c2)nc(-c2cccc(C(F)(F)F)n2)n1 [Compound 18, N^2,N^2-dimethyl-6-(6-(trifluoromethyl)pyridin-2-yl)-N^4-(2-(trifluoromethyl)pyridin-4-yl)-1,3,5-triazine-2,4-diamine] |  |  |  |  |
|  |  |  |  |  |  |  |  |  |  |  |  |  |  |  |  | CC(C)(O)CNc1nc(Nc2ccnc(C(F)(F)F)c2)nc(-c2cccc(C(F)(F)F)n2)n1 [Compound 19, reference compound] |  | 1.59 µg/mL (≈ 3.36 µM) | 0.109 µg/mL (≈ 0.23 µM) | 401 nM |
